From patent US6737383B1, “Herbicidal oxadiazolidines” (priority 1999, dated 2004)

Legend:
bedstraw = experiment: Test B pre/postemergence bedstraw; type: in vivo, Galium aparine; details: Preemergence; for Plant response rating, Bedstraw: Rate 125 g/ha
Summary of the method: (§1)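 Test chemicals in a non-phytotoxic solvent mixture with surfactant were sprayed preemergence onto planted seeds and postemergence onto plants 2 to 18 cm tall (1- to 4-leaf stage). After twelve to sixteen days in a greenhouse, injury was visually rated against untreated controls from 0 (no effect) to 10 (complete control).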

blackgrass = experiment: Test B pre/postemergence blackgrass; type: in vivo, Alopecurus myosuroides; details: Preemergence; for Plant response rating, Blackgrass: Rate 125 g/ha
Summary of the method: as §1

surinam grass = experiment: Test B pre/postemergence surinam grass; type: in vivo, Brachiaria decumbens; details: Preemergence; for Plant response rating, B. signalgrass: Rate 125 g/ha
Summary of the method: as §1

cocklebur = experiment: Test B pre/postemergence cocklebur; type: in vivo, Xanthium strumarium; details: Preemergence; for Plant response rating, Cocklebur: Rate 125 g/ha
Summary of the method: as §1

corn = experiment: Test B pre/postemergence corn; type: in vivo, Zea mays; details: Preemergence; for Plant response rating, Corn: Rate 125 g/ha
Summary of the method: as §1

crabgrass = experiment: Test B pre/postemergence crabgrass; type: in vivo, Digitaria sanguinalis; details: Preemergence; for Plant response rating, Crabgrass: Rate 125 g/ha
Summary of the method: as §1

giant foxtail = experiment: Test B pre/postemergence giant foxtail; type: in vivo, Setaria faberii; details: Preemergence; for Plant response rating, Giant foxtail: Rate 125 g/ha
Summary of the method: as §1

morningglory = experiment: Test B pre/postemergence morningglory; type: in vivo, Ipomoea hederacea; details: Preemergence; for Plant response rating, Morningglory: Rate 125 g/ha
Summary of the method: as §1

pigweed = experiment: Test B pre/postemergence pigweed; type: in vivo, Amaranthus retroflexus; details: Preemergence; for Plant response rating, Redroot pigweed: Rate 125 g/ha
Summary of the method: as §1

rape = experiment: Test B pre/postemergence rape; type: in vivo, Brassica napus; details: Preemergence; for Plant response rating, Rape: Rate 125 g/ha
Summary of the method: as §1

soybean = experiment: Test B pre/postemergence soybean; type: in vivo, Glycine max; details: Preemergence; for Plant response rating, Soybean: Rate 125 g/ha
Summary of the method: as §1

sugar beet = experiment: Test B pre/postemergence sugar beet; type: in vivo, Beta vulgaris; details: Preemergence; for Plant response rating, Sugarbeets: Rate 125 g/ha
Summary of the method: as §1

velvetleaf = experiment: Test B pre/postemergence velvetleaf; type: in vivo, Abutilon theophrasti; details: Preemergence; for Plant response rating, Velvetleaf: Rate 125 g/ha
Summary of the method: as §1

wheat = experiment: Test B pre/postemergence wheat; type: in vivo, Triticum aestivum; details: Preemergence; for Plant response rating, Wheat: Rate 125 g/ha
Summary of the method: as §1

wild oat = experiment: Test B pre/postemergence wild oat; type: in vivo, Avena fatua; details: Preemergence; for Plant response rating, Wild oats: Rate 125 g/ha
Summary of the method: as §1

purple nutsedge = experiment: Test B pre/postemergence purple nutsedge; type: in vivo, Cyperus rotundus; details: Preemergence; for Plant response rating, Nutsedge: Rate 125 g/ha
Summary of the method: as §1

[1] = Rate 62 g/ha, scale of 0 to 10 where 0 is no effect and 10 is complete control
[2] = scale of 0 to 10 where 0 is no effect and 10 is complete control
[3] = Rate 250 g/ha, scale 0 (no effect) to 10 (complete control)
[4] = Rate 500 g/ha, scale 0 to 10 (0 no effect, 10 complete control)

COCC(OC)n1c(=O)on(C(=O)N(c2ccccc2)C(C)C)c1=O (stereo not drawn) [Compound 734]
6: Morningglory plant response rating (morningglory; [4])
9: Plant response rating, Blackgrass (blackgrass; [2]) | Blackgrass plant response rating (blackgrass; [3]) | B. signalgrass plant response rating (surinam grass; [1]) | Plant response rating, B. signalgrass (surinam grass; [2]) | B. signalgrass plant response rating (surinam grass; [3]) | B. signalgrass plant response rating (surinam grass; [4]) | Corn plant response rating (corn; [3]) | Corn plant response rating (corn; [4]) | Crabgrass plant response rating (crabgrass; [1]) | Plant response rating, Crabgrass (crabgrass; [2]) | Crabgrass plant response rating (crabgrass; [3]) | Giant foxtail plant response rating (giant foxtail; [1]) | Wheat plant response rating (wheat; [4])
10: Blackgrass plant response rating (blackgrass; [4]) | Crabgrass plant response rating (crabgrass; [4]) | Plant response rating, Giant foxtail (giant foxtail; [2]) | Giant foxtail plant response rating (giant foxtail; [3]) | Giant foxtail plant response rating (giant foxtail; [4]) | Wild oats plant response rating (wild oat; [3]) | Wild oats plant response rating (wild oat; [4])
2: Morningglory plant response rating (morningglory; [1]) | Plant response rating, Morningglory (morningglory; [2]) | Redroot pigweed plant response rating (pigweed; [1]) | Plant response rating, Rape (rape; [2]) | Plant response rating, Sugarbeets (sugar beet; [2]) | Velvetleaf plant response rating (velvetleaf; [1])
0: Bedstraw plant response rating (bedstraw; [1]) | Plant response rating, Bedstraw (bedstraw; [2]) | Bedstraw plant response rating (bedstraw; [3]) | Bedstraw plant response rating (bedstraw; [4]) | Cocklebur plant response rating (cocklebur; [1]) | Plant response rating, Cocklebur (cocklebur; [2]) | Cocklebur plant response rating (cocklebur; [3]) | Cocklebur plant response rating (cocklebur; [4]) | Corn plant response rating (corn; [1]) | Rape plant response rating (rape; [1]) | Soybean plant response rating (soybean; [1]) | Plant response rating, Soybean (soybean; [2]) | Soybean plant response rating (soybean; [3]) | Sugarbeets plant response rating (sugar beet; [1]) | Wheat plant response rating (wheat; [1]) | Nutsedge plant response rating (purple nutsedge; [1]) | Plant response rating, Nutsedge (purple nutsedge; [2]) | Nutsedge plant response rating (purple nutsedge; [3])
3: Morningglory plant response rating (morningglory; [3]) | Plant response rating, Velvetleaf (velvetleaf; [2]) | Wild oats plant response rating (wild oat; [1])
8: Redroot pigweed plant response rating (pigweed; [3]) | Redroot pigweed plant response rating (pigweed; [4]) | Sugarbeets plant response rating (sugar beet; [4]) | Wheat plant response rating (wheat; [3]) | Plant response rating, Wild oats (wild oat; [2])
7: Blackgrass plant response rating (blackgrass; [1]) | Plant response rating, Redroot pigweed (pigweed; [2]) | Rape plant response rating (rape; [4]) | Soybean plant response rating (soybean; [4]) | Velvetleaf plant response rating (velvetleaf; [4]) | Plant response rating, Wheat (wheat; [2])
5: Plant response rating, Corn (corn; [2]) | Rape plant response rating (rape; [3]) | Sugarbeets plant response rating (sugar beet; [3]) | Velvetleaf plant response rating (velvetleaf; [3])

COC(CCl)n1c(=O)on(C(=O)N(c2ccc(Cl)cc2)C(C)C)c1=O (stereo not drawn) [Compound 725]
7: Blackgrass plant response rating (blackgrass; [3]) | Blackgrass plant response rating (blackgrass; [4]) | Giant foxtail plant response rating (giant foxtail; [1])
0: Bedstraw plant response rating (bedstraw; [1]) | Plant response rating, Bedstraw (bedstraw; [2]) | Bedstraw plant response rating (bedstraw; [3]) | Bedstraw plant response rating (bedstraw; [4]) | B. signalgrass plant response rating (surinam grass; [1]) | Cocklebur plant response rating (cocklebur; [1]) | Plant response rating, Cocklebur (cocklebur; [2]) | Cocklebur plant response rating (cocklebur; [3]) | Cocklebur plant response rating (cocklebur; [4]) | Corn plant response rating (corn; [1]) | Plant response rating, Corn (corn; [2]) | Corn plant response rating (corn; [3]) | Corn plant response rating (corn; [4]) | Redroot pigweed plant response rating (pigweed; [1]) | Plant response rating, Redroot pigweed (pigweed; [2]) | Redroot pigweed plant response rating (pigweed; [3]) | Rape plant response rating (rape; [1]) | Plant response rating, Rape (rape; [2]) | Rape plant response rating (rape; [3]) | Rape plant response rating (rape; [4]) | Soybean plant response rating (soybean; [1]) | Plant response rating, Soybean (soybean; [2]) | Soybean plant response rating (soybean; [3]) | Soybean plant response rating (soybean; [4]) | Sugarbeets plant response rating (sugar beet; [1]) | Plant response rating, Sugarbeets (sugar beet; [2]) | Sugarbeets plant response rating (sugar beet; [3]) | Velvetleaf plant response rating (velvetleaf; [1]) | Plant response rating, Velvetleaf (velvetleaf; [2]) | Velvetleaf plant response rating (velvetleaf; [3]) | Velvetleaf plant response rating (velvetleaf; [4]) | Wheat plant response rating (wheat; [1]) | Plant response rating, Wheat (wheat; [2]) | Wheat plant response rating (wheat; [3]) | Wheat plant response rating (wheat; [4]) | Wild oats plant response rating (wild oat; [1]) | Nutsedge plant response rating (purple nutsedge; [1]) | Plant response rating, Nutsedge (purple nutsedge; [2]) | Nutsedge plant response rating (purple nutsedge; [4])
10: Giant foxtail plant response rating (giant foxtail; [3]) | Giant foxtail plant response rating (giant foxtail; [4])
8: Crabgrass plant response rating (crabgrass; [3]) | Crabgrass plant response rating (crabgrass; [4]) | Plant response rating, Giant foxtail (giant foxtail; [2])
2: Blackgrass plant response rating (blackgrass; [1]) | Sugarbeets plant response rating (sugar beet; [4]) | Plant response rating, Wild oats (wild oat; [2])
1: Morningglory plant response rating (morningglory; [1]) | Plant response rating, Morningglory (morningglory; [2]) | Morningglory plant response rating (morningglory; [3])
4: Plant response rating, Blackgrass (blackgrass; [2]) | B. signalgrass plant response rating (surinam grass; [3]) | B. signalgrass plant response rating (surinam grass; [4]) | Wild oats plant response rating (wild oat; [3])
6: Crabgrass plant response rating (crabgrass; [1]) | Plant response rating, Crabgrass (crabgrass; [2]) | Wild oats plant response rating (wild oat; [4])
3: Plant response rating, B. signalgrass (surinam grass; [2]) | Morningglory plant response rating (morningglory; [4]) | Redroot pigweed plant response rating (pigweed; [4])
